# Biological target: T1, L-FABP (Rattus norvegicus, UniProt P02692)
# T1 construct: made in house
# T1 sequence (P02692 1-127): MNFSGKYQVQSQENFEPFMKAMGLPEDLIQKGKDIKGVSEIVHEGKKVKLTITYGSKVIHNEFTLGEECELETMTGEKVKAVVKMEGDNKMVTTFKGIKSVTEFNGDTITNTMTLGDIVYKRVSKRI
# Test: Displacement of L-FABP-bound ANS
# Format: binding
# Conditions: read-out: K i, displacing L-FABP-bound ANS
# Method: Advantage was taken of the fact that NBD-stearic acid bound to L-FABP (two ligand binding sites) as well as SCP-2 (single-ligand binding site) to design a NBD-stearic acid displacement assay that allowed determination of which fatty acid synthesis inhibitors or their CoA thioesters bound to these LCFA/LCFA-CoA binding proteins. Displacement of NBD-stearate from L-FABP and SCP-2 was determined by incubating L-FABP or SCP-2 (25 nM in 10 mM phosphate buffer) with NBD stearate (40 nM) for 12 min to obtain maximal fluorescence, followed by titration with increasing amount of ligand. From the displacement curve, the K i value was calculated as described. All experiments were carried out with a thermostated cuvette to maintain temperature at 24°C using a circulating water bath. ANS displacement assay was performed as described.
structure (smiles),measurement,value
"C=C1C(=O)OC(CCCCCCCC)C1C(=O)O (stereo not shown) [C75, 4-methylene-2-octyl-5-oxotetrahydrofuran-3-carboxylic acid]",Ki,5.59 ± 0.31 µM

# — article PMC3600304, “Inhibitors of Fatty Acid Synthesis Induce PPARα-Regulated Fatty Acid β-Oxidative Genes: Synergistic Roles of L-FABP and Glucose” (PPAR Research, 2013)
